Source: ChEMBL document CHEMBL4311960, “Two optimized antimicrobial peptides with therapeutic potential for clinical antibiotic-resistant Staphylococcus aureus” (Eur J Med Chem, 2019)
≈ marks a conversion by molar mass, not a printed value.

Columns and labels:
Staphylococcus aureus [1] = assay: Antibacterial activity against Staphylococcus aureus ATCC 25923 assessed as reduction in bacterial growth incubated for 24 hrs by serial dilution method; type: functional; conditions: ATCC 25923, 24 h
Erythrocyte = assay: Hemolytic activity in mouse Erythrocyte assessed as HC10 incubated for 1 hr; type: ADME, cell-based
Candida albicans = assay: Antifungal activity against Candida albicans ATCC 5314 assessed as reduction in fungal growth incubated for 24 hrs by serial dilution method; type: functional; conditions: ATCC 5314, 24 h
[2] = Hemolytic activity in mouse Erythrocyte assessed as HC50 incubated for 1 hr; type: ADME, cell-based; conditions: mouse erythrocytes
Staphylococcus aureus [3] = assay: Antibacterial activity against methicillin-resistant Staphylococcus aureus ATCC 18466 assessed as reduction in bacterial growth incubated for 24 hrs by serial dilution method; type: functional; conditions: ATCC 18466, 24 h
Streptococcus sanguinis = assay: Antibacterial activity against Streptococcus sanguinis ATCC 10556 assessed as reduction in bacterial growth incubated for 24 hrs by serial dilution method; type: functional; conditions: ATCC 10556, 24 h
[4] = Hemolytic activity in mouse Erythrocyte at 640 ug/ml incubated for 1 hr relative to control; type: ADME, cell-based; conditions: mouse erythrocytes, read-out: %max
[5] = Cytotoxicity against human HEK293T cells assessed as cell viability at 5 to 640 ug/ml incubated for 48 hrs by MTT assay relative to control; type: cell-based, HEK-293T; conditions: read-out: Activity
Streptococcus mutans = assay: Antibacterial activity against Streptococcus mutans UA159 assessed as reduction in bacterial growth incubated for 24 hrs by serial dilution method; type: functional; conditions: UA159, 24 h
Staphylococcus aureus [6] = assay: Antibacterial activity against methicillin-resistant Staphylococcus aureus ATCC 19167 assessed as reduction in bacterial growth incubated for 24 hrs by serial dilution method; type: functional; conditions: ATCC 19167, 24 h
Staphylococcus aureus [7] = assay: Antibacterial activity against methicillin-resistant Staphylococcus aureus ATCC 19047 assessed as reduction in bacterial growth incubated for 24 hrs by serial dilution method; type: functional; conditions: ATCC 19047, 24 h
Staphylococcus aureus [8] = assay: Ratio of MIC for resistant Staphylococcus aureus ATCC 29213 for 15 days to MIC for Staphylococcus aureus ATCC 29213 for 24 hrs; type: functional
Staphylococcus aureus [9] = assay: Antibacterial activity against Staphylococcus aureus ATCC 25923 assessed as reduction in bacterial growth at MIC measured after 15 passages; type: functional
Staphylococcus aureus [10] = assay: Antibacterial activity against methicillin-resistant Staphylococcus aureus ATCC 19102 assessed as reduction in bacterial growth incubated for 24 hrs by serial dilution method; type: functional; conditions: ATCC 19102, 24 h
Staphylococcus aureus [11] = assay: Antibacterial activity against methicillin-resistant Staphylococcus aureus ATCC 18567 assessed as reduction in bacterial growth incubated for 24 hrs by serial dilution method; type: functional; conditions: ATCC 18567, 24 h
Staphylococcus aureus [12] = assay: Antibacterial activity against Staphylococcus aureus ATCC 29213 assessed as reduction in bacterial growth at MIC measured after 15 passages; type: functional
Staphylococcus aureus [13] = assay: Antibacterial activity against methicillin-resistant Staphylococcus aureus ATCC 18475 assessed as reduction in bacterial growth incubated for 24 hrs by serial dilution method; type: functional; conditions: ATCC 18475, 24 h
Staphylococcus aureus [14] = assay: Antibacterial activity against methicillin-resistant Staphylococcus aureus ATCC 18908 assessed as reduction in bacterial growth incubated for 24 hrs by serial dilution method; type: functional; conditions: ATCC 18908, 24 h
Staphylococcus aureus [15] = assay: Antibacterial activity against methicillin-resistant Staphylococcus aureus ATCC 18858 assessed as reduction in bacterial growth incubated for 24 hrs by serial dilution method; type: functional; conditions: ATCC 18858, 24 h
Staphylococcus aureus [16] = assay: Antibacterial activity against methicillin-resistant Staphylococcus aureus ATCC 19041 assessed as reduction in bacterial growth incubated for 24 hrs by serial dilution method; type: functional; conditions: ATCC 19041, 24 h
Staphylococcus aureus [17] = assay: Ratio of MIC for resistant Staphylococcus aureus ATCC 25923 for 15 days to MIC for Staphylococcus aureus ATCC 25923 for 24 hrs; type: functional
Staphylococcus aureus [18] = assay: Antibacterial activity against methicillin-resistant Staphylococcus aureus ATCC 19494 assessed as reduction in bacterial growth incubated for 24 hrs by serial dilution method; type: functional; conditions: ATCC 19494, 24 h
Staphylococcus aureus [19] = assay: Antibacterial activity against methicillin-resistant Staphylococcus aureus ATCC 19952 assessed as reduction in bacterial growth incubated for 24 hrs by serial dilution method; type: functional; conditions: ATCC 19952, 24 h
Staphylococcus aureus [20] = assay: Antibacterial activity against methicillin-resistant Staphylococcus aureus ATCC 19498 assessed as reduction in bacterial growth incubated for 24 hrs by serial dilution method; type: functional; conditions: ATCC 19498, 24 h
Staphylococcus aureus [21] = assay: Antibacterial activity against Staphylococcus aureus ATCC 29213 assessed as reduction in bacterial growth incubated for 24 hrs by serial dilution method; type: functional; conditions: ATCC 29213, 24 h
Staphylococcus aureus [22] = assay: Antibacterial activity against Staphylococcus aureus ATCC 8325.4 assessed as reduction in bacterial growth incubated for 24 hrs by serial dilution method; type: functional; conditions: ATCC 8325.4, 24 h
Staphylococcus aureus [23] = assay: Antibacterial activity against methicillin-resistant Staphylococcus aureus ATCC 19916 assessed as reduction in bacterial growth incubated for 24 hrs by serial dilution method; type: functional; conditions: ATCC 19916, 24 h
Staphylococcus aureus [24] = assay: Antibacterial activity against methicillin-resistant Staphylococcus aureus ATCC 19900 assessed as reduction in bacterial growth incubated for 24 hrs by serial dilution method; type: functional; conditions: ATCC 19900, 24 h
Staphylococcus aureus [25] = assay: Antibacterial activity against Staphylococcus aureus ATCC 6538 assessed as reduction in bacterial growth incubated for 24 hrs by serial dilution method; type: functional; conditions: ATCC 6538, 24 h
Staphylococcus aureus [26] = assay: Antibacterial activity against methicillin-resistant Staphylococcus aureus ATCC 18878 assessed as reduction in bacterial growth incubated for 24 hrs by serial dilution method; type: functional; conditions: ATCC 18878, 24 h
Staphylococcus aureus [27] = assay: Antibacterial activity against methicillin-resistant Staphylococcus aureus ATCC 19423 assessed as reduction in bacterial growth incubated for 24 hrs by serial dilution method; type: functional; conditions: ATCC 19423, 24 h
[28] = Cytotoxicity against human HEK293T cells assessed as cell viability at 640 ug/ml incubated for 48 hrs by MTT assay relative to control; type: cell-based, HEK-293T; conditions: read-out: Activity

H-YEIKINRHFKTLKKNLKK-NH2
MIC (Staphylococcus aureus [1]; read-out: MIC): < 64 µg/mL | HC10 (Erythrocyte): > 640 µg/mL | MIC (Candida albicans; read-out: MIC): < 64 µg/mL | HC50 at 1 h [2]: > 640 µg/mL | MIC (Staphylococcus aureus [3]; read-out: MIC): < 64 µg/mL | MIC (Streptococcus sanguinis): > 64 µg/mL | hemolysis at 1 h, 640 ug/ml [4]: 7.94% | viability at 48 h [5]: 70 to 80% | MIC (Streptococcus mutans): > 64 µg/mL

H-YIRKINRHFKTLKKNLKK-NH2
MIC (Staphylococcus aureus [1]; read-out: MIC): < 64 µg/mL | HC10 (Erythrocyte): > 640 µg/mL | MIC (Candida albicans; read-out: MIC): < 64 µg/mL | HC50 at 1 h [2]: > 640 µg/mL | MIC (Staphylococcus aureus [3]; read-out: MIC): < 64 µg/mL | MIC (Streptococcus sanguinis; read-out: MIC): < 64 µg/mL | hemolysis at 1 h, 640 ug/ml [4]: 8.07% | viability at 48 h [5]: 70 to 80% | MIC (Streptococcus mutans): > 64 µg/mL

H-LYKRYILRKFKFLKKKLKKK-NH2
MIC (Staphylococcus aureus [1]; read-out: MIC): < 64 µg/mL | HC10 (Erythrocyte): > 640 µg/mL | MIC (Candida albicans): > 64 µg/mL | HC50 at 1 h [2]: > 640 µg/mL | MIC (Staphylococcus aureus [3]; read-out: MIC): 64 µg/mL | MIC (Streptococcus sanguinis): > 64 µg/mL | hemolysis at 1 h, 640 ug/ml [4]: 9.34% | viability at 48 h [5]: 70 to 80% | MIC (Streptococcus mutans): > 64 µg/mL

Cc1onc(-c2ccccc2)c1C(=O)N[C@@H]1C(=O)N2[C@@H]1SC(C)(C)[C@@H]2C(=O)O [OXACILLIN]
MIC (Staphylococcus aureus [6]): > 1200 µg/mL | MIC (Staphylococcus aureus [7]): > 1200 µg/mL | MIC (Staphylococcus aureus [1]; read-out: MIC): 0.5 µg/mL (≈ 1.25 µM) | Ratio (Staphylococcus aureus [8]): 8 | fold change (FC) (Staphylococcus aureus [9]): 8 | MIC (Staphylococcus aureus [10]): > 1200 µg/mL | MIC (Staphylococcus aureus [11]): > 1200 µg/mL | fold change (FC) (Staphylococcus aureus [12]): 8 | MIC (Staphylococcus aureus [13]): > 1200 µg/mL | MIC (Staphylococcus aureus [3]; read-out: MIC): > 1200 µg/mL | MIC (Staphylococcus aureus [14]): > 1200 µg/mL | MIC (Staphylococcus aureus [15]): > 1200 µg/mL | MIC (Staphylococcus aureus [16]): > 1200 µg/mL | Ratio (Staphylococcus aureus [17]): 8 | MIC (Staphylococcus aureus [18]): > 1200 µg/mL | MIC (Staphylococcus aureus [19]): > 1200 µg/mL | MIC (Staphylococcus aureus [20]): > 1200 µg/mL | MIC (Staphylococcus aureus [21]): 1 µg/mL (≈ 2.49 µM) | MIC (Staphylococcus aureus [22]): 0.5 µg/mL (≈ 1.25 µM) | MIC (Staphylococcus aureus [23]): > 1200 µg/mL | MIC (Staphylococcus aureus [24]): > 1200 µg/mL | MIC (Staphylococcus aureus [25]): 0.5 µg/mL (≈ 1.25 µM) | MIC (Staphylococcus aureus [26]): > 1200 µg/mL | MIC (Staphylococcus aureus [27]): > 1200 µg/mL

H-VWKRWVVRKWKWVKKKVKKK-NH2
MIC (Staphylococcus aureus [1]; read-out: MIC): < 64 µg/mL | HC10 (Erythrocyte): 57.24 µg/mL | MIC (Candida albicans; read-out: MIC): 64 µg/mL | viability at 48 h, 640 ug/ml [28]: 58.9% | HC50 at 1 h [2]: > 640 µg/mL | MIC (Staphylococcus aureus [3]; read-out: MIC): < 64 µg/mL | MIC (Streptococcus sanguinis): > 64 µg/mL | hemolysis at 1 h, 640 ug/ml [4]: 31% | MIC (Streptococcus mutans; read-out: MIC): < 64 µg/mL

H-SYEIKINRHFKTLKKNLKKK-NH2
MIC (Staphylococcus aureus [1]; read-out: MIC): < 64 µg/mL | HC10 (Erythrocyte): > 640 µg/mL | MIC (Candida albicans): > 64 µg/mL | HC50 at 1 h [2]: > 640 µg/mL | MIC (Staphylococcus aureus [3]): > 64 µg/mL | MIC (Streptococcus sanguinis): > 64 µg/mL | hemolysis at 1 h, 640 ug/ml [4]: 6.78% | viability at 48 h [5]: 70 to 80% | MIC (Streptococcus mutans; read-out: MIC): < 64 µg/mL

H-YIRKIRRFFKKLNKNLKK-NH2
MIC (Staphylococcus aureus [1]): > 64 µg/mL | HC10 (Erythrocyte): > 640 µg/mL | MIC (Candida albicans; read-out: MIC): < 64 µg/mL | HC50 at 1 h [2]: > 640 µg/mL | MIC (Staphylococcus aureus [3]; read-out: MIC): < 64 µg/mL | MIC (Streptococcus sanguinis): > 64 µg/mL | hemolysis at 1 h, 640 ug/ml [4]: 9.86% | viability at 48 h [5]: 70 to 80% | MIC (Streptococcus mutans; read-out: MIC): < 64 µg/mL
